Experimental findings from ChEMBL document CHEMBL1201862, “PubChem BioAssay data set” (2004) are described below.

Some test systems named below: SF-539; T47D; MDA-N; BT-549; NCI-H460; MDA-MB-231; SK-MEL-5; SF-295; MCF7; HL-60; TK-10; CCRF-CEM; HCT-15; SK-OV-3; NCI-H23; LOX IMVI; IGROV-1; MDA-MB-435; Malme-3M; OVCAR-5.
Holding throughout (assay): NCI anticancer screen, dose series, 48 h

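Results reflect a 48-hour exposure of cells in 96-well plates to compound at five concentrations. GI50: concentration for 50% inhibition of growth.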 Activity calls are given as the source filed them. No stated cut-off is given here; in the data, active = GI50 up to about 1.1 µM and inactive = higher.

As to `COc1ccc2cc(-c3ccc(OC)c(OC)c3)c(=O)oc2c1`, the GI50 with SF-539 was > 100 µM (inactive); in the assay on T47D it was > 100 µM (inactive); with MDA-N, > 100 µM (inactive); in the assay with BT-549, > 100 µM (inactive); in the assay on NCI-H460 it was > 100 µM (inactive); in the assay on MDA-MB-231, 48.6 µM (inactive). Also, the GI50 in the assay with SK-MEL-5 was > 100 µM (inactive); in the assay on SF-295, 53.1 µM (inactive); with MCF7 it was > 100 µM (inactive); with HL-60 it was > 100 µM (inactive); with TK-10, > 100 µM (inactive); in the assay with CCRF-CEM it was > 100 µM (inactive). The GI50 with HCT-15 is > 100 µM; in the assay with SK-OV-3 it was > 100 µM (inactive); with NCI-H23 it was > 100 µM (inactive); in the assay with LOX IMVI, > 100 µM (inactive); in the assay on IGROV-1, > 100 µM (inactive); in the assay on MDA-MB-435, > 100 µM (inactive). Further, the GI50 in the assay with Malme-3M and with OVCAR-5 was > 100 µM (inactive) in each case.
In the case of `C#CCn1c(=O)c(I)cn(/C(=C/C(=O)OCC)C(=O)OCC)c1=O`, the GI50 in the assay with SF-539 was 7.21 µM (inactive); in the assay on T47D, 0.818 µM (active); with MDA-N, 3.37 µM (inactive); in the assay with BT-549 it was 11.5 µM (inactive); in the assay with NCI-H460 it was 23.4 µM (inactive); with MDA-MB-231, 15.2 µM (inactive). Moreover, the GI50 was 39.7 µM (inactive) in the assay with SF-295; 2.12 µM (inactive) in the assay with MCF7; 1.64 µM (inactive) in the assay on HL-60; 0.3 µM (active) in the assay with TK-10; 3.53 µM (inactive) in the assay on CCRF-CEM; 2.74 µM in the assay with HCT-15. Besides, the GI50 in the assay with SK-OV-3 is 17.9 µM (inactive); with NCI-H23, 15.3 µM (inactive); in the assay with LOX IMVI, 4.95 µM (inactive); in the assay on IGROV-1 it was 15.7 µM (inactive); in the assay on MDA-MB-435 it was 7.6 µM (inactive); with Malme-3M, 1.52 µM (inactive). Further, in the assay on OVCAR-5, the GI50 is 16.2 µM (inactive).
As for `NCCCNC1(c2cc3ccccc3s2)CCCCC1`, the GI50 with SF-539 was 2.38 µM (inactive); in the assay with T47D it was 2.58 µM (inactive); with MDA-N, 1.78 µM (inactive); in the assay with BT-549 it was 13.8 µM (inactive); with NCI-H460, 1.94 µM (inactive); in the assay with MDA-MB-231, 3.86 µM (inactive). Besides, the GI50 is 1.82 µM (inactive) with SK-MEL-5; 9.48 µM (inactive) in the assay on SF-295; 3.69 µM (inactive) with MCF7; 2.64 µM (inactive) with HL-60; 3.75 µM (inactive) in the assay with TK-10; 2.48 µM (inactive) in the assay with CCRF-CEM. In addition, the GI50 was 4.49 µM in the assay on HCT-15; 13.5 µM (inactive) with SK-OV-3; 15.7 µM (inactive) with NCI-H23; 2.31 µM (inactive) with LOX IMVI; 10.6 µM (inactive) in the assay on IGROV-1; 1.94 µM (inactive) in the assay on MDA-MB-435. For the same compound, the GI50 in the assay on Malme-3M was 1.88 µM (inactive); in the assay on OVCAR-5 it was 13 µM (inactive).
Regarding `CCOC(=O)C1(C(=O)OCC)[C@H](c2ccccc2)C2=NO[C@@H]3CCC[C@H]1[C@H]23`, the GI50 is > 100 µM (inactive) in the assay with SF-539; 26.5 µM (inactive) in the assay with T47D; 31.2 µM (inactive) in the assay on MDA-N; 44.8 µM (inactive) in the assay with BT-549; 60.5 µM (inactive) in the assay with NCI-H460; 75.7 µM (inactive) in the assay with MDA-MB-231. The GI50 is 31.3 µM (inactive) with SK-MEL-5; 33.4 µM (inactive) in the assay with SF-295; 41.4 µM (inactive) with MCF7; 33.8 µM (inactive) in the assay with HL-60; 63.2 µM (inactive) in the assay with TK-10; 35.2 µM (inactive) with CCRF-CEM. Besides, the GI50 with HCT-15 is 43.6 µM; in the assay with SK-OV-3, 30.1 µM (inactive); with NCI-H23, 57.1 µM (inactive); in the assay with LOX IMVI it was > 100 µM (inactive); in the assay on IGROV-1, 56.8 µM (inactive); in the assay on MDA-MB-435, 21.4 µM (inactive). The values for the GI50 with Malme-3M and in the assay on OVCAR-5 were > 100 µM (inactive) and 65.6 µM (inactive), respectively.
In the case of `COc1ccc2nc3cc(Cl)ccc3c(NCCCNCc3cc(OC)c(OC)c(OC)c3)c2c1`, the GI50 in the assay on SF-539 was 1.87 µM (inactive); in the assay with T47D, 1.89 µM (inactive); in the assay with MDA-N, 1.82 µM (inactive); with BT-549, 1.76 µM (inactive); with NCI-H460, 1.64 µM (inactive); in the assay with MDA-MB-231, 1.98 µM (inactive). The GI50 is 1.4 µM (inactive) in the assay with SK-MEL-5; 1.51 µM (inactive) with SF-295; 1.75 µM (inactive) in the assay on MCF7; 0.895 µM (active) in the assay on HL-60; 1.73 µM (inactive) in the assay on TK-10; 0.865 µM (active) with CCRF-CEM. The GI50 with HCT-15 is 1.54 µM; in the assay on SK-OV-3 it was 1.81 µM (inactive); in the assay with NCI-H23, 1.71 µM (inactive); in the assay with LOX IMVI, 1.54 µM (inactive); in the assay on IGROV-1 it was 1.82 µM (inactive); in the assay with MDA-MB-435 it was 1.82 µM (inactive). Besides, the values for the GI50 in the assay with Malme-3M and in the assay on OVCAR-5 were 2.23 µM (inactive) and 1.69 µM (inactive), respectively.
Consider `C1COCCN1.S=C(S)N1CCOCC1`, for which the GI50 in the assay on SF-539 is 43.1 µM (inactive); in the assay on T47D, > 100 µM (inactive); in the assay with MDA-N, 94 µM (inactive); in the assay with BT-549 it was > 100 µM (inactive); in the assay on NCI-H460, 5.87 µM (inactive); with MDA-MB-231, > 100 µM (inactive). Also, the GI50 in the assay with SK-MEL-5 is 7.59 µM (inactive); in the assay on SF-295 it was > 100 µM (inactive); with MCF7, 29.4 µM (inactive); in the assay on HL-60 it was 1.12 µM (inactive); in the assay with TK-10, > 100 µM (inactive); with CCRF-CEM, 0.526 µM (active). Besides, the GI50 is 6.7 µM in the assay with HCT-15; 5.4 µM (inactive) in the assay on SK-OV-3; 2.43 µM (inactive) with NCI-H23; 18.3 µM (inactive) in the assay with LOX IMVI; 6.76 µM (inactive) in the assay with IGROV-1; > 100 µM (inactive) in the assay on MDA-MB-435. Moreover, the GI50 was 28.4 µM (inactive) in the assay on Malme-3M and 12.5 µM (inactive) in the assay on OVCAR-5.
On to `COC(=O)C12CCC(C(F)(F)C1=O)C2(C)C` (configuration not stated), for which the GI50 with SF-539, in the assay on T47D, with MDA-N, in the assay with BT-549, in the assay on NCI-H460 and in the assay with MDA-MB-231 was > 100 µM (inactive) in each case. Further, the GI50 was > 100 µM (inactive) in the assay on SK-MEL-5; > 100 µM (inactive) in the assay with SF-295; > 100 µM (inactive) in the assay with MCF7; > 100 µM (inactive) in the assay on HL-60; > 100 µM (inactive) in the assay with TK-10; > 100 µM with HCT-15. Moreover, the GI50 in the assay on SK-OV-3, with NCI-H23, in the assay on LOX IMVI, with IGROV-1, in the assay with MDA-MB-435 and with Malme-3M was > 100 µM (inactive) in each case. The GI50 in the assay with OVCAR-5 was > 100 µM (inactive).
As to `CC(=O)Oc1c2oc3ccc(Cl)cc3c(=O)c2c(O)c2ccsc12`, the GI50 with SF-539 is > 100 µM (inactive); in the assay with T47D, 0.132 µM (active); in the assay on MDA-N it was > 100 µM (inactive); in the assay with BT-549, 51.4 µM (inactive); in the assay with NCI-H460, > 100 µM (inactive); in the assay on MDA-MB-231, 28.2 µM (inactive). The GI50 was > 100 µM (inactive) in the assay on SK-MEL-5; > 100 µM (inactive) with SF-295; > 100 µM (inactive) with MCF7; > 100 µM (inactive) in the assay on HL-60; 27.6 µM (inactive) in the assay on TK-10; 86.1 µM (inactive) in the assay on CCRF-CEM. In addition, the GI50 was > 100 µM with HCT-15; > 100 µM (inactive) in the assay on SK-OV-3; > 100 µM (inactive) in the assay on NCI-H23; > 100 µM (inactive) with LOX IMVI; > 100 µM (inactive) with MDA-MB-435; > 100 µM (inactive) in the assay on Malme-3M. Besides, the GI50 with OVCAR-5 is > 100 µM (inactive).
